Results as given in patent publication US20090047246A1, “NOVEL INHIBITORS OF HEPATITIS C VIRUS REPLICATION” (InterMune, Inc., priority 2007, published 2009).

target: T1, HCV NS3 helicase (Hepatitis C virus genotype 1b, UniProt P26663); assay: HCV Helicase Prompt FRET Assay (Example A); type: biochemical; settings: HCV NS3 helicase; tables do not say whether Example A or Example B assay; read-out: IC50 Activity
T1 construct: full-length NS3 (1-631), purified at Array BioPharma
Outline: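 Full-length NS3 (1-631), 5 or 6 nM, preincubated 5 min with compound, then unwinds 50 nM FAM/BHQ-1 duplex substrate with 250 nM capture strand and 300 μM ATP in 25 mM MOPS pH 7.0, 1.5 mM MgCl2, 0.005% Triton X-100, 2% DMSO. Fluorescence (485/535 nm) followed ~30 min at room temperature; IC50 from initial rates by 4- or 5-parameter fit.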

T1 sequence (P26663 1027-1657): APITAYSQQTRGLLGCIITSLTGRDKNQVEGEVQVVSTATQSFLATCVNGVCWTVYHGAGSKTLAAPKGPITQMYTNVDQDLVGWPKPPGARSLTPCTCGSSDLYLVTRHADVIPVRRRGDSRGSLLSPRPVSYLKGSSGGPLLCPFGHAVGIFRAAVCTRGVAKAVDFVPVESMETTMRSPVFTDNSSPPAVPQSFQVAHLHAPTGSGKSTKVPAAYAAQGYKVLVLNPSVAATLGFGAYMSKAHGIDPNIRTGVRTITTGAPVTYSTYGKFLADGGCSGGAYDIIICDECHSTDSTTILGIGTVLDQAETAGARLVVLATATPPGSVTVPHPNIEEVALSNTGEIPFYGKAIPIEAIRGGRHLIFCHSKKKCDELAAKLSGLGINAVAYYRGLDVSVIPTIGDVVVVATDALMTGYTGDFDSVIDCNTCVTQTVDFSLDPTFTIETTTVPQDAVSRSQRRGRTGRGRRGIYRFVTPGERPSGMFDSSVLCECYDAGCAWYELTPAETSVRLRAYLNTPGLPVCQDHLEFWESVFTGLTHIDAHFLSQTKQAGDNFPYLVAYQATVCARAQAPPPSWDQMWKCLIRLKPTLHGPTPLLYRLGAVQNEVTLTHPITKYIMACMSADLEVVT

SMILES	IC50 [µM]
Cc1cc([N+](=O)[O-])ccc1-n1cc(C(O)(C(=O)O)C(F)(F)F)c2cc(Br)ccc21 (stereo not shown) [Example 392]	< 10
COC(=O)CC1CN(c2ccc([N+](=O)[O-])cc2C)c2ccc(Br)cc21 (stereo not shown) [Example 393]	10 to 50
CCOC(=O)C(O)c1cn(-c2ccc([N+](=O)[O-])cc2C)c2ccc(Br)cc12 (stereo not shown) [Example 394]	> 50
Cc1cc([N+](=O)[O-])ccc1N1CC(CC(=O)O)c2cc(Br)ccc21 (stereo not shown) [Example 395]	10 to 50
COC(=O)C(c1ccc([N+](=O)[O-])cc1C)c1cn(-c2ccc([N+](=O)[O-])cc2C)c2ccc(Br)cc12 (stereo not shown) [Example 396]	< 10
COC(=O)C(Cc1ccccc1)c1cn(-c2ccc([N+](=O)[O-])cc2C)c2ccc(Br)cc12 (stereo not shown) [Example 397]	> 50
Cc1cc([N+](=O)[O-])ccc1-n1cc(C(Cc2ccccc2)C(=O)O)c2cc(Br)ccc21 (stereo not shown) [Example 398]	< 10
Cc1cc([N+](=O)[O-])ccc1Cc1cn(-c2ccc([N+](=O)[O-])cc2C)c2ccc(Br)cc12 [Example 399]	10 to 50
COC(=O)C(c1ccc([N+](=O)[O-])cc1C)C1CN(c2ccc([N+](=O)[O-])cc2C)c2ccc(Br)cc21 (stereo not shown) [Example 400]	10 to 50
Cc1cc([N+](=O)[O-])ccc1-n1cc(C(=O)C(=O)N2CCCC2)c2cc(Br)ccc21 [Example 401]	> 50
Cc1cc([N+](=O)[O-])ccc1-n1cc(C(O)(C(=O)N2CCCC2)C(F)(F)F)c2cc(Br)ccc21 (stereo not shown) [Example 402]	> 50
Cc1cc([N+](=O)[O-])ccc1C(C(=O)O)C1CN(c2ccc([N+](=O)[O-])cc2C)c2ccc(Br)cc21 (stereo not shown) [Example 404]	10 to 50
Cc1cc([N+](=O)[O-])ccc1CC1CN(c2ccc([N+](=O)[O-])cc2C)c2ccc(Br)cc21 (stereo not shown) [Example 405]	10 to 50
Cc1cc([N+](=O)[O-])ccc1C(C(=O)O)C1CN(c2ccc([N+](=O)[O-])cc2C)c2ccc(Br)cc21 (stereo not shown) [Example 406]	10 to 50
COC(=O)C(Cc1ccc(C(C)C)cc1)c1cn(-c2ccc([N+](=O)[O-])cc2C)c2ccc(Br)cc12 (stereo not shown) [Example 407]	> 50
Cc1cc([N+](=O)[O-])ccc1-n1cc(C(Cc2ccc(C(C)C)cc2)C(=O)O)c2cc(Br)ccc21 (stereo not shown) [Example 408]	10 to 50
COC(=O)C(Cc1ccccc1)c1cn(Cc2ccc(C(C)C)cc2)c2ccc(Br)cc12 (stereo not shown) [Example 409]	> 50
CC(C)c1ccc(Cn2cc(C(Cc3ccccc3)C(=O)O)c3ccccc32)cc1 (stereo not shown) [Example 410]	< 10
O=C(O)C(Cc1c[nH]c2ccc(Br)cc12)c1c[nH]c2ccc(Br)cc12 (stereo not shown) [Example 411]	10 to 50
CCOC(=O)Cc1c(-c2ccccc2)n(Cc2csc3ccc(Cl)cc23)c2ccccc12 [Example 412]	> 50
CCOC(=O)C(Cc1ccccc1)c1c(-c2ccccc2)n(Cc2csc3ccc(Cl)cc23)c2ccccc12 (stereo not shown) [Example 413]	> 50
O=C(O)Cc1c(-c2ccccc2)n(Cc2csc3ccc(Cl)cc23)c2ccccc12 [Example 414]	< 10
O=C(O)C(Cc1ccccc1)c1c(-c2ccccc2)n(Cc2csc3ccc(Cl)cc23)c2ccccc12 (stereo not shown) [Example 415]	< 10
Cc1cc([N+](=O)[O-])ccc1-n1cc(C(CC2CC2)C(=O)O)c2ccccc21 (stereo not shown) [Example 416]	10 to 50

SMILES	IC50 [µM]
CC(C)c1ccc(Cn2cc(C(=O)C(=O)O)c3ccccc32)cc1 [Example 417]	10 to 50
CC(C)c1ccc(Cn2cc(C(N)C(=O)O)c3ccccc32)cc1 (stereo not shown) [Example 418]	> 50
CC(C)c1ccc(Cn2cc(C(NC(=O)OC(C)(C)C)C(=O)O)c3ccccc32)cc1 (stereo not shown) [Example 419]	10 to 50
CC(=O)NC(C(=O)O)c1cn(Cc2ccc(C(C)C)cc2)c2ccccc12 (stereo not shown) [Example 420]	10 to 50
COC(=O)C(NC(=O)c1c[nH]cn1)c1cn(Cc2ccc(C(C)C)cc2)c2ccccc12 (stereo not shown) [Example 421]	> 50
CC(C)c1ccc(Cn2cc(C(NC(=O)c3c[nH]cn3)C(=O)O)c3ccccc32)cc1 (stereo not shown) [Example 422]	10 to 50
CC(C)c1ccc(Cn2cc(C(NC(N)=O)C(=O)O)c3ccccc32)cc1 (stereo not shown) [Example 423]	10 to 50
CC(C)c1ccc(Cn2cc(CC(=O)O)c3ccccc32)cc1 [Example 424]	10 to 50
CN(Cc1ccccc1)c1ccc(-n2cc(C(O)(C(=O)O)C(F)(F)F)c3ccccc32)cc1 (stereo not shown) [Example 425]	< 10
CCOC(=O)c1c(CC(=O)O)c2cc(Br)ccc2n1Cc1ccc(C(C)C)cc1 [Example 427]	10 to 50
CC(C)c1ccc(Cn2c(C(=O)N3CCOCC3)c(CC(=O)O)c3cc(Br)ccc32)cc1 [Example 428]	> 50
CC(C)c1ccc(Cn2c(C(=O)N3CCNC(=O)C3)c(CC(=O)O)c3cc(Br)ccc32)cc1 [Example 429]	> 50
CC(C)c1ccc(Cn2c(C(=O)N3CCNCC3)c(CC(=O)O)c3cc(Br)ccc32)cc1 [Example 430]	> 50
CC(C)c1ccc(Cn2c(C(=O)N3CCCC3)c(CC(=O)O)c3cc(Br)ccc32)cc1 [Example 431]	10 to 50
CCN(CC)C(=O)c1c(CC(=O)O)c2cc(Br)ccc2n1Cc1ccc(C(C)C)cc1 [Example 432]	10 to 50
CC(C)NC(=O)c1c(CC(=O)O)c2cc(Br)ccc2n1Cc1ccc(C(C)C)cc1 [Example 433]	10 to 50
CC(C)c1ccc(Cn2c(C(=O)NC3CC3)c(CC(=O)O)c3cc(Br)ccc32)cc1 [Example 434]	10 to 50
CC(C)c1ccc(Cn2c(C(=O)NC3CCCCC3)c(CC(=O)O)c3cc(Br)ccc32)cc1 [Example 435]	10 to 50
CC(C)c1ccc(Cn2c(C(=O)NC3CCN(C(=O)OC(C)(C)C)CC3)c(CC(=O)O)c3cc(Br)ccc32)cc1 [Example 436]	< 10
CC(C)c1ccc(Cn2c(C(=O)NC3CCNCC3)c(CC(=O)O)c3cc(Br)ccc32)cc1 [Example 438]	10 to 50
CC(C)c1ccc(Cn2c(C(=O)NCCc3ccccn3)c(CC(=O)O)c3ccccc32)cc1 [Example 439]	10 to 50
CC(C)c1ccc(Cn2c(C(=O)NCc3ccccc3)c(CC(=O)O)c3cc(Br)ccc32)cc1 [Example 440]	10 to 50
CC(C)c1ccc(Cn2c(C(=O)NCc3ccc(-c4ccccc4)cc3)c(CC(=O)O)c3cc(Br)ccc32)cc1 [Example 441]	10 to 50
CC(C)c1ccc(Cn2c(C(=O)NCc3ccc(S(N)(=O)=O)cc3)c(CC(=O)O)c3ccccc32)cc1 [Example 442]	10 to 50

SMILES	IC50 [µM]
CC(C)c1ccc(Cn2c(C(=O)NCc3ccc(S(C)(=O)=O)cc3)c(CC(=O)O)c3cc(Br)ccc32)cc1 [Example 443]	< 10
Cc1ccc(CNC(=O)c2c(CC(=O)O)c3cc(Br)ccc3n2Cc2ccc(C(C)C)cc2)o1 [Example 444]	10 to 50
CC(C)c1ccc(Cn2c(C(=O)NCc3cccc(-c4ccccc4)c3)c(CC(=O)O)c3cc(Br)ccc32)cc1 [Example 445]	< 10
CC(C)c1ccc(Cn2c(C(=O)NCc3ccc(Oc4ccccc4)cc3)c(CC(=O)O)c3cc(Br)ccc32)cc1 [Example 446]	< 10
CC(C)c1ccc(Cn2c(C(=O)NCc3ccc([N+](=O)[O-])cc3)c(CC(=O)O)c3ccccc32)cc1 [Example 447]	< 10
CC(C)c1ccc(Cn2c(C(=O)NCc3nc4ccccc4[nH]3)c(CC(=O)O)c3cc(Br)ccc32)cc1 [Example 448]	< 10
CC(C)c1ccc(Cn2c(C(=O)NCc3nc4ccccc4[nH]3)c(CC(=O)O)c3ccccc32)cc1 [Example 449]	< 10
CC(C)c1ccc(Cn2c(C(=O)NCc3ccc(Cl)cc3)c(CC(=O)O)c3ccccc32)cc1 [Example 450]	< 10
CC(C)c1ccc(Cn2c(C(=O)NCc3cccc(Cl)c3)c(CC(=O)O)c3ccccc32)cc1 [Example 451]	< 10
CC(C)c1ccc(Cn2c(C(=O)NCc3ccc(F)cc3)c(CC(=O)O)c3ccccc32)cc1 [Example 452]	< 10
CC(C)c1ccc(Cn2c(C(=O)NCc3cccc(F)c3)c(CC(=O)O)c3ccccc32)cc1 [Example 453]	< 10
CC(C)c1ccc(Cn2c(C(=O)NCc3ccc(OC(F)(F)F)cc3)c(CC(=O)O)c3ccccc32)cc1 [Example 454]	< 10
CC(C)c1ccc(Cn2c(C(=O)NCc3ccc(C(F)(F)F)cc3)c(CC(=O)O)c3ccccc32)cc1 [Example 455]	< 10
CC(C)c1ccc(Cn2c(C(=O)Nc3ccccc3)c(CC(=O)O)c3cc(Br)ccc32)cc1 [Example 456]	< 10
CC(C)c1ccc(Cn2c(C(=O)Nc3cccc(S(C)(=O)=O)c3)c(CC(=O)O)c3ccccc32)cc1 [Example 460]	< 10
CC(C)c1ccc(Cn2c(C(=O)Nc3ccc(S(C)(=O)=O)cc3)c(CC(=O)O)c3ccccc32)cc1 [Example 461]	< 10
CC(C)c1ccc(Cn2c(C(=O)Nc3cccc(NS(C)(=O)=O)c3)c(CC(=O)O)c3ccccc32)cc1 [Example 462]	< 10
CC(C)c1ccc(Cn2c(C(=O)Nc3cccnc3)c(CC(=O)O)c3ccccc32)cc1 [Example 463]	10 to 50
O=C(O)c1cccc2c1c1ccccc1n2Cc1ccccc1 [Example 465]	> 50
O=C(O)c1cccc2[nH]c3ccccc3c12 [Example 467]	> 50
Cc1cc([N+](=O)[O-])ccc1-n1c2ccccc2c2c(C(=O)O)cccc21 [Example 470]	> 50
Cc1cc([N+](=O)[O-])ccc1-n1c2ccc(Br)cc2c2c(C(=O)O)cccc21 [Example 471]	10 to 50
O=C(O)Cc1cn(Cc2cccc(Oc3ccccc3F)c2)c2ccccc12 [Example 472]	< 10
O=C(O)Cc1cn(Cc2cccc(Oc3cccc(F)c3)c2)c2ccccc12 [Example 473]	< 10

same assay, conditions: numeric bound instead of class symbol; read-out: IC50 Activity

SMILES	IC50 [µM]
COC(=O)C(c1ccc([N+](=O)[O-])cc1C)C1CN(c2ccc([N+](=O)[O-])cc2C)c2ccc(Br)cc21 (stereo not shown) [Example 403]	> 20
